# Laboratory results: PubChem BioAssay (NCI)
#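 Following 48 hours of exposure in 96-well plates, responses at five concentrations were used to interpolate endpoints linearly. TGI denotes the concentration required for complete inhibition of growth.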
# What was measured:
# Experiment in all cases: NCI anticancer screen, dose series, 48 h
# 786-0 renal = test system: 786-0 renal
# BT-549 breast = test system: BT-549 breast
# CAKI-1 renal = test system: CAKI-1 renal
# CCRF-CEM leukemia = test system: CCRF-CEM leukemia
# HS 578T breast = test system: HS 578T breast
# LOX IMVI melanoma = test system: LOX IMVI melanoma
# M14 melanoma = test system: M14 melanoma
# MDA-MB-231 breast = test system: MDA-MB-231 breast
# NCI-H226 lung = test system: NCI-H226 lung
# NCI-H522 lung = test system: NCI-H522 lung
# RPMI-8226 leukemia = test system: RPMI-8226 leukemia
# SN12C renal = test system: SN12C renal
# SW-620 colon = test system: SW-620 colon
# TK-10 renal = test system: TK-10 renal
# UACC-257 melanoma = test system: UACC-257 melanoma
structure (smiles),measurement,setting,value
O=C(/C=C/C=C/c1ccccc1)c1ccc2c(c1)CCCC2,TGI,786-0 renal,> 100 µM
same,TGI,BT-549 breast,77.4 µM
same,TGI,CAKI-1 renal,> 100 µM
same,TGI,CCRF-CEM leukemia,> 100 µM
same,TGI,HS 578T breast,30.4 µM
same,TGI,LOX IMVI melanoma,> 100 µM
same,TGI,M14 melanoma,> 100 µM
same,TGI,MDA-MB-231 breast,> 100 µM
same,TGI,NCI-H226 lung,90.9 µM
same,TGI,NCI-H522 lung,37.7 µM
same,TGI,RPMI-8226 leukemia,> 100 µM
same,TGI,SN12C renal,> 100 µM
same,TGI,SW-620 colon,> 100 µM
same,TGI,TK-10 renal,> 100 µM
same,TGI,UACC-257 melanoma,> 100 µM
